Results from publication PMC11063903, “Engineering a human P2X2 receptor with altered ligand selectivity in yeast” (The Journal of Biological Chemistry, 2024).
Where a chain is given by its changes, count along the chain named.

Tests used:
P2X2 F303Y = molecular target: T1, P2X2 F303Y (Homo sapiens, UniProt Q9UBL9, F303Y); experiment: Fast GCaMP-mScarletI assay in yeast, P2X2 F303Y; type: cell-based; settings: for Bottom, best fit value / Hillslope, best fit value / Top, best fit value: four-parameter logistic fit of ΔF/ΔT; for Bottom, best fit value / Hillslope, best fit value / Top, best fit value / EC50: n = 3; for EC50: four-parameter logistic fit, unit inferred, unit M, read-out: EC50, best fit value
T1 construct: expressed in transfected cells; host or cells: S. cerevisiae BY4741 background
T1 sequence (Q9UBL9 1-471 F303Y): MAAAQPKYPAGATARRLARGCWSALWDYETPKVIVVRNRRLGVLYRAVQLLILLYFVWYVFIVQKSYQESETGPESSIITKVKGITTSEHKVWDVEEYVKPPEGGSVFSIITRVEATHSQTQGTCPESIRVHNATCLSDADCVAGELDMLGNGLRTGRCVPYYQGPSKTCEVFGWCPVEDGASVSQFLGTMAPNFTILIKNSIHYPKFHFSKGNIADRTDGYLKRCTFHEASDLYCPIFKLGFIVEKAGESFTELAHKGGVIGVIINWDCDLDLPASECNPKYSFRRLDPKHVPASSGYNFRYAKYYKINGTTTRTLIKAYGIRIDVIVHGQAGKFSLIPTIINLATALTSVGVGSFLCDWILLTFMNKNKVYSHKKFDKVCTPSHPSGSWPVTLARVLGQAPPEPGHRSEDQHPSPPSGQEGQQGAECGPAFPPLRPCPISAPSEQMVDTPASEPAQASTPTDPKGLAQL
Experimental: Figure 4 Unnatural-ligand gating in LBD libraries.A, WT P2X2 was tested with 1 mM ATP, 500 μM AMP-PNP, and compared to ATP with the broken receptor (K81C K83C) control with 1 mM ATP in the fast GCaMP-mScarletI assay (n = 3). […] B, heat map summarizing AMP-PNP signaling (ΔF/ΔT, fast GCaMP-mScarletI assay) in the site-saturation libraries (n = 2–3). All values are normalized to WT P2X2 with saturating amounts of AMP-PNP (500 μM) and therefore represent low signal (ΔF/ΔT) compared to the ATP ligand. C, F301W, F303Y, and A304W were combinatorially combined and tested against the WT, K81C K83C broken P2X2, and the single mutant clones with both ATP (1 mM, black) and AMP-PNP (500 μM, pink). […] Values here represent signal onset and are not normalized to a positive control (n = 2–5). D–K, dose response of each P2X variant with both ATP (black) and AMP-PNP (pink) in the fast GCaMP-mScarletI assay (n = 3). Statistics were performed via one-way ANOVA with Dunnett’s multiple comparisons with to the “broken” K81C K83C negative control. ∗ represents a p value ≤0.05, ∗∗ is p ≤ 0.01, and ∗∗∗ is p ≤ 0.001.
Given that the yeast-based screen seemed to recapitulate important structural and functional features of human ion channel function, we hypothesized that it might be possible to engineer new P2X2 functionalities in yeast, including new ligand specificity. […] We screened our 133-member library in the presence of 500 μM AMP-PNP (Fig. S7). While the AMP-PNP signal was uniformly low, three substitutions (F301W, F303Y, and A304W) increased signaling 2.5 to 2.8 times relative to the negative control receptor (Figs. 4B, and S7, D, F, and G). To gain a more complete view of the properties of these mutants, dose–response curves were generated with ATP and AMP-PNP (Fig. 4, D–G, and Table S2).
GCaMP assays were performed as follows. P2X2 GCaMP strains were designed with a bi-cistronic reporter, in which the GCaMP protein was followed by a 2A peptide and a mScarletI reporter ([53]). The co-translated mScarletI was designed to act as a control for plasmid loss, GCaMP breakage via nonsense mutation, and contamination. […] P2X2-GCaMP strains were cultured and induced as previously described. Samples were induced for 24 h to allow for the accumulation of the mature GCaMP protein. Cells were washed three times in 0.1 M MES/Tris buffer and resuspended with MES/Tris with supplemental calcium. Cells were loaded onto a black, clear bottom microplate and imaged on a FlexStation3 plate reader. Samples were imaged in “flex” mode. Samples were imaged for 48 s at an interval of 1.6 s. Fluorescence was measured with an excitation at 485 nm, and emission 525 nm. At the 21 s mark, 100 μl ligand solution was transferred to the cells. For strains with mScarlet, fluorescence was read with excitation 570 nm/emission 610 nm. Slopes were calculated from the last 6 points of measurement and were normalized to the positive control samples. Any replicate in which the mScarlet value was measured to be over 2 standard deviations less than the mean for that set was discarded from further analysis.
For multiple comparisons in the site-saturation screening data, One-way ANOVA with Dunnett’s multiple comparisons test was performed where every sample was compared to the “broken” negative control. Significance was plotted where ∗ represents a p value ≤0.05, ∗∗ is p ≤0.01, and ∗∗∗ is p ≤0.001. Dose–response curves were fit with nonlinear regression software using a four-parameter logistic curve. All statistics were calculated and plotted in Graphpad Prism software.

P2X2 A304W = molecular target: T2, P2X2 A304W (Homo sapiens, UniProt Q9UBL9, A304W); experiment: 15-min kinetic GCaMP-mScarletI assay in yeast, P2X2 A304W; type: cell-based; settings: 1 mM ATP or 5 mM AMP-PNP, 15-min bath incubation, n = 3
T2 construct: expressed in transfected cells; host or cells: S. cerevisiae BY4741 background
T2 sequence (Q9UBL9 1-471 A304W): T1 sequence (Q9UBL9 1-471 F303Y) with Y303F, A304W
Experimental: To more fully characterize the selected and engineered P2X2 variants, kinetic assays were performed over a longer period (15 min) that provided a more complete view of receptor gating (Fig. 5, A–H).
Figure 5 Kinetic analysis of P2X variants.A–H, P2X2 variants in GCaMP-mScarletI yeast were injected with 1 mM ATP (black) or 5 mM AMP-PNP (pink) and fluorescence was monitored over a 15-min time course of bath incubation. Error bars represent standard deviation of the mean (n = 3).
The A304W mutation therefore appears to either favor the open conformation of the receptor and/or to have slow rates of pore closure.

Row | activity compared to the wild-type (P2X2 F303Y; AMP-PNP dose-response, Fig. 4D-G, Table S2) | Structure (SMILES) | Bottom, best fit value (P2X2 F303Y) | Hillslope, best fit value (P2X2 F303Y) | Top, best fit value (P2X2 F303Y) | EC50 (P2X2 F303Y) | signal decay over the time course (P2X2 A304W)
1 | 1.89 fold | Nc1ncnc2c1ncn2[C@@H]1O[C@H](COP(=O)(O)OP(=O)(O)NP(=O)(O)O)[C@@H](O)[C@H]1O [AMP-PNP] | 0.2603 | 0.8857 | 2.141 | 328 µM | a small amount of signal decay
2 | – | Nc1ncnc2c1ncn2[C@@H]1O[C@H](COP(=O)(O)OP(=O)(O)OP(=O)(O)O)[C@@H](O)[C@H]1O [ATP] | 0.80 | 2.18 | 68.07 | 3.6 µM | no sign of decay
